Results as given in patent US5413993A, “Method for the treatment of narcotic withdrawal symptoms in animals using lipopolysaccharides” (priority 1992, dated 1995).

How the values were obtained:
[1] = in vivo; cited from earlier work
[2] = in vivo; cited from earlier work; remark: listed apart in the source
[3] = Convulsions on intravenous clonidine (inventors' finding); type: in vivo; conditions: 10 mg/kg
[4] = tested on: jumping, a severer withdrawal symptom; conditions: intravenous, 0.1-0.10 mg/kg
withdrawal body shake = conditions: intraperitoneal, 0.16 mg/kg; cited from earlier work

Which “difference between toxic and effective doses” value [1] does the source give for `C[C@]12N[C@H](Cc3ccccc31)c1ccccc12` [Dizocilipine, dizocilpine] here?
The value was “extremely small difference between its toxic and effective doses”.

Which dependence to itself [2] does the source give for `CCC(=O)C(CC(C)N(C)C)(c1ccccc1)c1ccccc1` (centres unmarked) [Methadone] here?
The dependence to itself was “cause dependence to itself”.

Which results are given for `Clc1cccc(Cl)c1N=C1NCCN1` [Clonidine, clonidine]?
convulsions [3]: causes convulsions; suppression of jumping [4]: fails to suppress jumping; suppression of withdrawal body shake (withdrawal body shake): suppress withdrawal body shake
